System: 415267-285-R-J2-PDC complex spheroid viability
Test: Anticancer human tumor 415267-285-R-J2-PDC patient-derived breast carcinoma cell line growth inhibition [POLQ]
Conditions: for IC50: curve of first compound; for viability, T/C: stronger effect = lower value
Method: Multicellular complex tumor spheroid response to Polymerase (POL) inhibitors (novobiocin, ART-558, RP6685) in combination with a variety of drugs and investigational agents in selected tumor cell lines
The POL inhibitors (novobiocin, ART-558, and RP6685) were evaluated both individually and in combination with standard of care and investigational anticancer small molecules within a complex spheroid model of solid tumors. . Complex spheroids include a stromal component modeled by human endothelial cells (HUVEC) and fibroblasts modeled by human mesenchymal stem cells (MSCs). The concentration ranges selected for each drug and investigational agent were based upon clinically achievable concentrations if the clinical Cmax of the agent was known.
Compounds. The drugs and investigational agents: novobiocin (NSC847541), ART-558 (NSC835418), RP-6685 (NSC848927), peposertib (NSC802822), ceralasertib (NSC780249), elimusertib (NSC800525), camonsertib (NSC841442), AZD-1390 (NSC803789), olaparib (NSC753686), talazoparib (NSC767125), rucaparib (NSC756644), sotorasib (NSC818433), MRTX-1133 (NSC836407), SN-38 (NSC673596), topotecan (NSC609699), epotoside (NSC141540), doxorubicin (NSC123127), gemcitabine (NSC613327), 5-fluorouracil (NSC19893), paclitaxel (NSC125973), vemurafenib (NSC761431), MSA-2 (NSC828583), SN-011 (NSC837082), adavosertib (NSC754352), prexasertib (NSC758257), carboplatin (NSC241240) and oxaliplatin (NSC266046), were obtained from the National Cancer Institute (NCI) Developmental Therapeutics Program Chemical Repository (21). The FDA-approved anticancer drug set is available from the Developmental Therapeutics Program at https://dtp.cancer.gov/organization/dscb/obtaining/. […] The stock solutions were prepared in dimethyl sulfoxide (DMSO, Sigma-Aldrich, St. Louis, MO, cat. D2650), except for the platinum compounds which were prepared in saline (Quality Biological, Gaithersburg, MD, cat. 114-055-101), at 800-fold the tested concentration and stored at -70 degrees C prior to their use. All drugs and investigational agents were tested over a range starting from a high concentration at or near the clinical Cmax and decreasing in half-log increments. If the clinical Cmax for an agent had not been determined, the highest concentration tested was 10 microM, except for SN-38, which was tested at a high concentration of 1 microM.
Cell Culture. All cells were maintained in an incubator at 37 degrees C and 5% CO2 with 95% humidity. The PDC lines were cultured according to standard operating procedures established by the NCI PDMR (https://pdmr.cancer.gov). Table 3 of the manuscript, lists the cell lines along with the number of the three cell types plated to form the mct-spheroids and media for tumor cell growth. After thawing, all PDC lines, except 997537-175-T-J1-PDC and 415267-285-R-J2-PDC, were cultured in Matrigel-coated flasks prepared with a working solution of 1X Ham's F-12 nutrient mix, without supplementation (Thermo Fisher Scientific, cat. 11765054), 100 U/mL penicillin-streptomycin (Thermo Fisher Scientific, cat. 15140122), and 2.5% Matrigel (Corning Inc., Corning, NY, cat. 354248) for the first three passages. The two PDC lines 997537-175-T-J1-PDC and 415267-285-R-J2-PDC were cultured on uncoated flasks. The 857933-349-R-J2-PDC line was cultured in 6C/Colon 1B media containing advanced DMEM/F-12 (Thermo Fisher Scientific, cat. 12634028), 10 mM HEPES (Thermo Fisher Scientific, cat. 15630080), 1X GlutaMAX supplement (Thermo Fisher Scientific, cat. 35050061), 0.1 mg/mL primocin (InvivoGen, San Diego, CA, cat. ant-pm-2), 10% defined fetal bovine serum, heat inactivated (HyClone Laboratories Inc., Logan, UT, cat. SH30070.03HI), 50% L-WRN conditioned media (ATCC, cat. CRL-3276), 1.25 mM N-Acetyl-L-cysteine (Sigma-Aldrich, cat. A9165), 10 mM nicotinamide (Sigma-Aldrich, cat. N0636), 1X B-27 supplement (Thermo Fisher Scientific, cat. 17504044), 1X N-2 supplement (Thermo Fisher Scientific, cat. […]

[1] = second compound 0.0316 µM, first compound 0.0316 µM
[2] = second compound 0.0316 µM, first compound 0.1 µM
[3] = second compound 0.0316 µM, first compound 0.316 µM
[4] = second compound 0.0316 µM, first compound 1 µM
[5] = second compound 0.0316 µM, first compound 3.16 µM
[6] = second compound 0.0316 µM, first compound 10 µM
[7] = second compound 0.1 µM, first compound 0.0316 µM
[8] = second compound 0.1 µM, first compound 0.1 µM
[9] = second compound 0.1 µM, first compound 0.316 µM
[10] = second compound 0.1 µM, first compound 1 µM
[11] = second compound 0.1 µM, first compound 3.16 µM
[12] = second compound 0.1 µM, first compound 10 µM
[13] = second compound 0.316 µM, first compound 0.0316 µM
[14] = second compound 0.316 µM, first compound 0.1 µM
[15] = second compound 0.316 µM, first compound 0.316 µM
[16] = second compound 0.316 µM, first compound 1 µM
[17] = second compound 0.316 µM, first compound 3.16 µM
[18] = second compound 0.316 µM, first compound 10 µM
[19] = second compound 1 µM, first compound 0.0316 µM
[20] = second compound 1 µM, first compound 0.1 µM
[21] = second compound 1 µM, first compound 0.316 µM
[22] = second compound 1 µM, first compound 1 µM
[23] = second compound 1 µM, first compound 3.16 µM
[24] = second compound 1 µM, first compound 10 µM
[25] = second compound 3.16 µM, first compound 0.0316 µM
[26] = second compound 3.16 µM, first compound 0.1 µM
[27] = second compound 3.16 µM, first compound 0.316 µM
[28] = second compound 3.16 µM, first compound 1 µM
[29] = second compound 3.16 µM, first compound 3.16 µM
[30] = second compound 3.16 µM, first compound 10 µM
[31] = second compound 10 µM, first compound 0.0316 µM
[32] = second compound 10 µM, first compound 0.1 µM
[33] = second compound 10 µM, first compound 0.316 µM
[34] = second compound 10 µM, first compound 1 µM
[35] = second compound 10 µM, first compound 3.16 µM
[36] = second compound 10 µM, first compound 10 µM
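Note: spheroids exposed to compounds for one week before readout.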
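Throughout, for viability, T/C: luminescence used as stand-in measure of viable cells; 100% = DMSO vehicle control viability.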

With `CCCS(=O)(=O)Nc1ccc(F)c(C(=O)c2c[nH]c3ncc(-c4ccc(Cl)cc4)cc23)c1F` + COC1C(OC(N)=O)C(O)C(Oc2ccc3c(O)c(NC(=O)c4ccc(O)c(CC=C(C)C)c4)c(=O)oc3c2C)OC1(C)C the IC50 (second compound 0.0316 µM) was > 10 µM, the IC50 (second compound 0.1 µM) was > 10 µM and the IC50 (second compound 0.316 µM) was > 10 µM. For the same compound, the IC50 (second compound 1 µM) was > 10 µM, the IC50 (second compound 3.16 µM) was > 10 µM and the IC50 (second compound 10 µM) was > 10 µM. For the same compound, the viability, T/C [1] was 123%, the viability, T/C [2] was 102% and the viability, T/C [3] was 94.5%. For the same compound, the viability, T/C [4] was 89%, the viability, T/C [5] was 110% and the viability, T/C [6] was 66.4%. The viability, T/C [7] was 103%, the viability, T/C [8] was 100% and the viability, T/C [9] was 97.3%. For the same compound, the viability, T/C [10] was 101%, the viability, T/C [11] was 111% and the viability, T/C [12] was 66.5%. For the same compound, the viability, T/C [13] was 101%, the viability, T/C [14] was 105% and the viability, T/C [15] was 99%. The viability, T/C [16] was 104%, the viability, T/C [17] was 92.4% and the viability, T/C [18] was 70.9%. It also gave a viability, T/C [19] of 103%, a viability, T/C [20] of 106% and a viability, T/C [21] of 94%. It also gave a viability, T/C [22] of 94.8%, a viability, T/C [23] of 92.6% and a viability, T/C [24] of 64.7%. For the same compound, the viability, T/C [25] was 109%, the viability, T/C [26] was 96.6% and the viability, T/C [27] was 90.2%. For the same compound, the viability, T/C [28] was 95.2%, the viability, T/C [29] was 101% and the viability, T/C [30] was 60.5%. It also gave a viability, T/C [31] of 116%, a viability, T/C [32] of 106% and a viability, T/C [33] of 97.8%. For the same compound, the viability, T/C [34] was 91.4%, the viability, T/C [35] was 93.2% and the viability, T/C [36] was 88.4%.
With `CNCc1ccc(-c2[nH]c3cc(F)cc4c3c2CCNC4=O)cc1` + COC1C(OC(N)=O)C(O)C(Oc2ccc3c(O)c(NC(=O)c4ccc(O)c(CC=C(C)C)c4)c(=O)oc3c2C)OC1(C)C the IC50 (second compound 0.0316 µM) was > 10 µM, the IC50 (second compound 0.1 µM) was > 10 µM and the IC50 (second compound 0.316 µM) was > 10 µM. For the same compound, the IC50 (second compound 1 µM) was > 10 µM, the IC50 (second compound 3.16 µM) was > 10 µM and the IC50 (second compound 10 µM) was > 10 µM. It also gave a viability, T/C [1] of 114%, a viability, T/C [2] of 104% and a viability, T/C [3] of 99%. The viability, T/C [4] was 113%, the viability, T/C [5] was 117% and the viability, T/C [6] was 113%. The viability, T/C [7] was 97.7%, the viability, T/C [8] was 103% and the viability, T/C [9] was 117%. The viability, T/C [10] was 107%, the viability, T/C [11] was 106% and the viability, T/C [12] was 106%. The viability, T/C [13] was 95.7%, the viability, T/C [14] was 109% and the viability, T/C [15] was 95.3%. For the same compound, the viability, T/C [16] was 114%, the viability, T/C [17] was 102% and the viability, T/C [18] was 98.8%. It also gave a viability, T/C [19] of 115%, a viability, T/C [20] of 105% and a viability, T/C [21] of 97.8%. It also gave a viability, T/C [22] of 127%, a viability, T/C [23] of 102% and a viability, T/C [24] of 98.7%. It also gave a viability, T/C [25] of 95%, a viability, T/C [26] of 99.4% and a viability, T/C [27] of 120%. For the same compound, the viability, T/C [28] was 116%, the viability, T/C [29] was 102% and the viability, T/C [30] was 104%. It also gave a viability, T/C [31] of 104%, a viability, T/C [32] of 108% and a viability, T/C [33] of 104%. The viability, T/C [34] was 106%, the viability, T/C [35] was 99.9% and the viability, T/C [36] was 111%.
For `Nc1ccn(C2OC(CO)C(O)C2(F)F)c(=O)n1` (stereo unspecified) + COC1C(OC(N)=O)C(O)C(Oc2ccc3c(O)c(NC(=O)c4ccc(O)c(CC=C(C)C)c4)c(=O)oc3c2C)OC1(C)C, the IC50 (second compound 0.0316 µM) was < 0.0316 µM, the IC50 (second compound 0.1 µM) was < 0.0316 µM and the IC50 (second compound 0.316 µM) was < 0.0316 µM. For the same compound, the IC50 (second compound 1 µM) was < 0.0316 µM, the IC50 (second compound 3.16 µM) was < 0.0316 µM and the IC50 (second compound 10 µM) was < 0.0316 µM. It also gave a viability, T/C [1] of 6.95%, a viability, T/C [2] of 7.41% and a viability, T/C [3] of 5.11%. For the same compound, the viability, T/C [4] was 5.97%, the viability, T/C [5] was 5.96% and the viability, T/C [6] was 7.99%. For the same compound, the viability, T/C [7] was 7.63%, the viability, T/C [8] was 6.2% and the viability, T/C [9] was 4.86%. The viability, T/C [10] was 5.57%, the viability, T/C [11] was 5.43% and the viability, T/C [12] was 5.04%. For the same compound, the viability, T/C [13] was 6.64%, the viability, T/C [14] was 8.84% and the viability, T/C [15] was 5.17%. For the same compound, the viability, T/C [16] was 4.85%, the viability, T/C [17] was 6.19% and the viability, T/C [18] was 4.45%. It also gave a viability, T/C [19] of 31.1%, a viability, T/C [20] of 5.76% and a viability, T/C [21] of 5.6%. The viability, T/C [22] was 5.77%, the viability, T/C [23] was 5.83% and the viability, T/C [24] was 5.65%. It also gave a viability, T/C [25] of 7.56%, a viability, T/C [26] of 6.05% and a viability, T/C [27] of 5.39%. It also gave a viability, T/C [28] of 6.49%, a viability, T/C [29] of 5.4% and a viability, T/C [30] of 5.83%. The viability, T/C [31] was 24.7%, the viability, T/C [32] was 5.53% and the viability, T/C [33] was 6.82%. It also gave a viability, T/C [34] of 6.71%, a viability, T/C [35] of 7.68% and a viability, T/C [36] of 5.33%.

Source: PubChem BioAssay AID1963847 (Molecular Pharmacology Branch, DTP, NCI, 2024)
